Among the data in PubChem BioAssay AID493002 (Sanford-Burnham Center for Chemical Genomics, 2010) are IC50 values, retold here.

What is called IC50 is the point on the concentration scale where inhibition reaches its midpoint.

In the test the test system is S. cerevisiae tim23-1 mutant growth, luminescence. Briefly: potency against tim23-1 yeast growth – luminescence, uHTS hits, dose response (AID 493002).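 Further: yeast grown roughly 22 hours at 25 °C before the luminescence read.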
As for `N=c1c2c(-c3ccccc3)c(-c3ccccc3)n(Cc3ccco3)c2ncn1Cc1ccco1`, the IC50 is 9.92 µM.
As for `O=C(CC(=O)c1cc(Cl)ccc1O)c1ccccc1`, the figure is 7.07 µM; as for `Nc1ccc(C(=O)Nc2nc3ccccc3s2)cc1`, 10.4 µM.
To `Cc1cc(C)nc(SCC(=O)c2cc3ccccc3oc2=O)n1` belongs 9.91 µM; to `O=C(/C(=C/O)N=Nc1ccccc1)c1ccco1`, 10.7 µM.
As to `Cc1nc2scc(C)n2c(=O)c1S(=O)(=O)Nc1ccc(OC(F)(F)F)cc1`, the IC50 is 6.96 µM.
As for `Cc1csc2nc(O)c(C(=O)NCCCc3ccccc3)c(=O)n12`, the figure is 7.87 µM; as for `O=C(Nc1ccc(Br)c(Cl)c1)c1ccco1`, 18.4 µM; as for `COc1ccc(-c2cccc(NC(=O)c3cccs3)c2)nn1`, 14.2 µM.
As for `O=C(CSc1cccc[n+]1[O-])Nc1ccccc1Oc1ccccc1`, the IC50 was 3.98 µM.
On to `Cc1ccc(Nc2nc3ccccc3s2)c(C)c1`, for which the IC50 is 11.1 µM.
As for `O=Cc1cnc2ccccc2c1-c1ccccc1`, the figure is 6.97 µM; as for `COc1cc2c3c(c1)C(C)=CC(C)(C)N3C(=O)C2=O`, 8.81 µM.
To `CC(C)c1nc(NCCO)c(C#N)c2c1CCCC2` belongs 12.4 µM.
As for `C[C@@]12C(=O)Nc3ccc(Cl)cc3C(=O)N1[C@H]1c3ccccc3OC[C@@H]1[C@@H]2c1ccccc1`, the figure is 3.38 µM.
Regarding `Cc1ccc(OCc2cc(C(=O)NC3CCCCC3)no2)cn1`, the IC50 was 15.4 µM.
As for `O=c1oc(-c2ccccc2F)nc2c1cnn2-c1ccccc1`, the figure is 7.71 µM; as for `N#Cc1c(-c2ccccc2)cc(-c2ccc(O)cc2)nc1N`, 5.58 µM.
As for `Cn1c(C(=O)Nc2ccc3c(c2)OCCO3)cc2sccc21`, the figure is 12.1 µM; as for `Cc1cccc(C(=O)OCC(=O)NC23CC4CC(CC(C4)C2)C3)c1O`, 12.5 µM; as for `Cc1ccc2occ(/C=N/NC(=O)c3ccncc3)c(=O)c2c1`, 21.6 µM.
As for `O=c1c(O)c(-c2ccccc2)oc2cc(O)cc(O)c12`, the figure is 8.56 µM; as for `O=C(c1cc(-c2ccc(O)cc2)on1)N1CCc2ccccc2C1`, 8.85 µM.
Turning to `CC(C)(C)c1ccc(OCC(=O)NCc2ccco2)c(Br)c1`, the IC50 is 5.94 µM.
As for `CCOc1cc(/C=C2\SC(N3CCCC(C)C3)=NC2=O)ccc1O` (configuration not stated), the figure is 28.8 µM.
To `CCOC(=O)c1c(C=O)c2sc(C)cc2n1C` belongs 18 µM; to `CCN(CC)c1ccc(/C=N/NC(=O)c2ccc3c(c2)OCCO3)cc1`, 11.3 µM; to `O=C(Nc1nc2c(F)cccc2s1)c1ccco1`, 16.7 µM.
As for `CC(C)CCN1C(=O)c2cccc3c(N)ccc(c23)C1=O`, the IC50 was 9.07 µM.
To `Cc1nc(-c2ccc(NC(=O)C3CC3)cc2)cs1` belongs 20.2 µM; to `O=C(Nc1ccc2nc(-c3ccc(Br)o3)[nH]c2c1)c1ccco1`, 5.88 µM; to `O=C(Nc1ccc(Nc2ccccc2)cc1)c1ccc(Cl)c([N+](=O)[O-])c1`, 6.25 µM.
As for `CO/C(N)=C(\C#N)N=Cc1ccccc1Cl`, the figure is 8.6 µM.
As for `O=c1oc(-c2ccc(Br)o2)nc2ccccc12`, the figure is 9.8 µM; as for `COc1ccc(OCC(=O)Nc2ccc3c(c2)CCC3)cc1`, 15.6 µM.
For `Cc1cnc(NC(=O)c2sc(Nc3ccccc3)nc2N)o1`, the IC50 was 9.39 µM.
As for `Cc1ccnc(NC(=O)c2ccc3c(c2)C(=O)N(CC(C)C)C3=O)c1`, the figure is 13 µM; as for `Cc1ccc(SCC(=O)OCn2nnc3ccccc3c2=O)cc1C`, 9.99 µM.
To `CSc1nnc(C)c(/C=C/NOCc2ccc(Cl)cc2)n1` belongs 6.13 µM; to `COc1ccc(C(C[N+](=O)[O-])c2c(C)[nH]n(-c3ccccc3)c2=O)cc1` (configuration not stated), 7.55 µM; to `Cc1ccc(S(=O)(=O)N[C@@H](Cc2ccccc2)C(=O)CCl)cc1`, 2.18 µM.
To `CCCCC(=O)NC(c1ccc(Cl)cc1)c1ccc2cccnc2c1O` (configuration not stated) belongs 9.68 µM; to `Oc1ccc(Br)cc1/C=N/Nc1ccccn1`, 6.87 µM; to `CCOc1cc2c3c(c1)C(C)CC(C)(C)N3C(=O)C2=O` (configuration not stated), 14.1 µM.
Take `O=C(Nc1cccc(NC(=O)c2ccco2)c1)c1cccc(Br)c1`: the IC50 is 13.1 µM.
As for `Nc1nc(-c2ccc(-c3ccccc3)cc2)cs1`, the figure is 14.9 µM.
To `Fc1ccccc1-c1cc2cc3c(cc2cn1)OCO3` belongs 16.1 µM.
As for `CC1(S(=O)(=O)O)CC(=O)c2ccccc2C1=O` (configuration not stated), the figure is 6.57 µM; as for `Cc1ccc(-c2nnc(NC3CCCC3)s2)cc1`, 26.6 µM.
As to `CCOC(=O)/C(=C/c1ccc(OC(=O)c2ccncc2)cc1)C(C)=O`, the IC50 was 11 µM.
As for `Cc1[nH][nH]c(=O)c1C(c1ccc(-c2ccc(Cl)c(Cl)c2)o1)c1c(C)[nH][nH]c1=O`, the figure is 14 µM; as for `COC(=O)c1ccc(NC(=O)c2nc(S(=O)(=O)Cc3cccc(C)c3)ncc2Cl)cc1`, 1.09 µM.
To `Cc1ccc(C(=O)NC(=S)NCc2ccccc2)cc1` belongs 12.1 µM.
To `Cc1ccc(NC(=S)NC(=O)C2CC2)cc1Cl` belongs 6.85 µM.
Consider `COc1cccc(C(=O)Nc2ccccc2)c1`, for which the IC50 was 9.33 µM.
To `CCn1ncc([N+](=O)[O-])c1C(=O)Nc1nc2cccc(C)c2s1` belongs 17.7 µM.
For `Cc1ccc(/C=N/NC(=O)c2csc3c2CCCC3)cc1`, the IC50 is 15.1 µM.
As for `O=C(Nc1ccc(Cl)cc1)c1cccs1`, the figure is 11 µM.
To `Oc1ccc(-c2nccc(-c3cccs3)n2)cc1` belongs 20.2 µM; to `O=C(N/N=C/C(Br)=C/c1ccccc1)c1ccccc1F`, 12.3 µM; to `Cc1ccc(Nc2nc(-c3sc(N)nc3C)cs2)cc1`, 13.4 µM.
As for `COc1ccc(NC(=O)Nc2cccc3cccnc23)cc1`, the figure is 40.1 µM; as for `COc1ccc(C2=NNC(c3cccs3)=Nc3ccc(OC)cc32)cc1`, 11.1 µM.
For `O=C(Nc1nsc(-c2ccccc2)n1)c1cccs1`, the IC50 is 8.04 µM.
To `O=C(Nc1ccc2c(c1)OCCO2)c1cccc(Cl)c1` belongs 11.6 µM; to `C=C1CCc2c([nH]c3ccc(OCC(C)C)cc23)C1=O`, 3.33 µM.
In the case of `COc1cc(/C=C/[N+](=O)[O-])ccc1OC(=O)c1cc2ccccc2oc1=O`, the IC50 was 4.02 µM.
As to `C[C@@]12C(=O)Nc3ccc(Br)cc3C(=O)N1[C@H]1c3ccccc3OC[C@@H]1[C@@H]2c1ccccc1`, the IC50 is 2.66 µM.
As for `O=C(Nc1cccc(F)c1)N1CC=C(c2ccc(Cl)cc2)CC1`, the figure is 12.8 µM.
To `Nc1ccc(/C=C/C(=O)c2cccs2)cc1` belongs 4.31 µM; to `Oc1ccccc1-c1cc(-c2ccc(F)cc2)n[nH]1`, 13.5 µM.
To `Cc1ccc(C(=O)C(C)OC(=O)c2cc3cc([N+](=O)[O-])ccc3oc2=O)cc1` (configuration not stated) belongs 14.9 µM; to `COc1ccc(NC(=O)Nc2nc3c(s2)CCCC3)cc1`, 7.73 µM; to `Cc1ccc2occ(C(=O)c3ccco3)c(=O)c2c1`, 9.16 µM.
With `CCc1sc(C(=O)Nc2nccs2)cc1C`, the IC50 is 16 µM.
As for `O=c1c(-c2ccc3c(c2)OCCO3)c(C(F)(F)F)oc2cc(O)cc(O)c12`, the figure is 12.6 µM.
To `O=C(Nc1cccc(Br)c1)C1CCCC1` belongs 7.64 µM; to `NNC(=O)c1nc(-c2ccccc2)cc(-c2ccccc2)n1`, 6.65 µM.
To `COCCn1c(C)cc(C(=O)COC(=O)c2ccc([N+](=O)[O-])o2)c1C` belongs 6.98 µM; to `Cc1ccc2[nH]cc(C(=O)CCl)c2c1`, 6.02 µM; to `COc1ccc(/C=N/NC(=O)c2cccs2)c2ccccc12`, 13.7 µM.
Take `O=C(N/N=C/c1ccc2cccnc2c1)c1ccco1`: the IC50 was 18.8 µM.
To `Cc1cccc(N2C(=O)c3ccc(Br)cc3C2=O)n1` belongs 12.7 µM; to `O=C(Nc1ccccc1N(C(=O)c1ccco1)S(=O)(=O)c1cccs1)c1ccco1`, 9.78 µM; to `O=C1OC(c2ccccc2)=N/C1=C\C=C\c1ccco1`, 5.33 µM.
For `COc1cccc(Nc2nc3ccc(OC)cc3s2)c1`, the IC50 is 10.1 µM.
For the compound `CCOC(=O)c1c(C)oc2c1c(C(c1cccnc1)N1CCCCC1)c(O)c1ccccc12` (configuration not stated), the IC50 is 21.5 µM.
As for `COc1ccc(C(=O)CC(=O)c2ccccc2O)cc1`, the figure is 15.1 µM; as for `CC(=O)Nc1ncnc2c1c(-c1ccc(Cl)cc1)nn2C(C)(C)C`, 10 µM.
As for `COc1ccc(Nc2nc(N)c([N+](=O)[O-])c(NC3CCCCC3)n2)cc1`, the IC50 was 13.6 µM.
As for `O=C(CSc1cccs1)Nc1ccc2ccccc2c1`, the figure is 12.2 µM; as for `O=S(=O)(Nc1cccc(-c2nc3cccnc3s2)c1)c1ccc2c(c1)OCCO2`, 11.6 µM.
To `O=Cc1cccnc1SCc1ccccc1` belongs 12.6 µM.
To `CN(C)c1c2ccccc2nc2c(F)c(F)c(F)c(F)c12` belongs 16.6 µM; to `O=C(Nc1oc2ccc(Cl)cc2c(=O)c1-c1ccc(F)cc1)c1ccco1`, 17.1 µM.
Regarding `O=c1c2ccccc2[nH]c(=S)n1CCN1CCC(=C(c2ccc(F)cc2)c2ccc(F)cc2)CC1`, the IC50 was 5.44 µM.
For the compound `CC(/C=N/NC(=O)c1cccs1)=C\c1ccco1`, the IC50 was 24.3 µM.
To `Cn1c(=O)c(C(=O)Nc2ccccn2)c(O)c2ccccc21` belongs 15.2 µM; to `O=C(Nc1scc(-c2ccccc2)c1C(=O)O)c1ccccc1F`, 12.2 µM; to `Cc1ccc(S(=O)(=O)Oc2ccccc2C=C2C(=O)N(C)C(=O)N(C)C2=O)cc1`, 4.22 µM.
To `COc1cccc2sc3cc(NCc4ccc5c(c4)OCO5)ccc3c(=O)c12` belongs 12.3 µM; to `N#C/C(=C\c1ccc(OCc2ccccc2)cc1)C(N)=O`, 11.7 µM.
As to `CC1CCN(C(=O)c2ccc3c(c2)NC(=O)/C(=C/c2ccccc2)S3)CC1`, the IC50 was 13.6 µM.
As for `O=C(Nc1ccc(OC(F)(F)F)cc1)N1CCN(c2ccnc3cc(Cl)ccc23)CC1`, the figure is 10.5 µM; as for `Cn1c(=O)c(C(=O)Nc2ncccn2)c(O)c2ccccc21`, 8.49 µM.
To `c1ccc2[nH]c(-c3ccc4c(c3)OCO4)nc2c1` belongs 8.63 µM; to `O=C(CCl)Nc1cccc(-c2cnc3ccccc3n2)c1`, 9.25 µM.
